Assay [1] has as its target Epidermal growth factor receptor (Homo sapiens, UniProt P00533). As to the kind of experiment: Selectivity interaction (Upstate Kinase Profiler service (Millipore)) EUB0000056c EGFR. Particulars: at 1 µM.
Assay [2] concerns the target Activin receptor type-1-like (Homo sapiens) (UniProt P37023). The experiment in a line: Selectivity interaction (ProQinase) EUB0000171b ACVRL1.
Assay [3] addresses T1, Dual serine/threonine and tyrosine protein kinase (Homo sapiens) (UniProt Q6XUX3).
T1 sequence (whole entry): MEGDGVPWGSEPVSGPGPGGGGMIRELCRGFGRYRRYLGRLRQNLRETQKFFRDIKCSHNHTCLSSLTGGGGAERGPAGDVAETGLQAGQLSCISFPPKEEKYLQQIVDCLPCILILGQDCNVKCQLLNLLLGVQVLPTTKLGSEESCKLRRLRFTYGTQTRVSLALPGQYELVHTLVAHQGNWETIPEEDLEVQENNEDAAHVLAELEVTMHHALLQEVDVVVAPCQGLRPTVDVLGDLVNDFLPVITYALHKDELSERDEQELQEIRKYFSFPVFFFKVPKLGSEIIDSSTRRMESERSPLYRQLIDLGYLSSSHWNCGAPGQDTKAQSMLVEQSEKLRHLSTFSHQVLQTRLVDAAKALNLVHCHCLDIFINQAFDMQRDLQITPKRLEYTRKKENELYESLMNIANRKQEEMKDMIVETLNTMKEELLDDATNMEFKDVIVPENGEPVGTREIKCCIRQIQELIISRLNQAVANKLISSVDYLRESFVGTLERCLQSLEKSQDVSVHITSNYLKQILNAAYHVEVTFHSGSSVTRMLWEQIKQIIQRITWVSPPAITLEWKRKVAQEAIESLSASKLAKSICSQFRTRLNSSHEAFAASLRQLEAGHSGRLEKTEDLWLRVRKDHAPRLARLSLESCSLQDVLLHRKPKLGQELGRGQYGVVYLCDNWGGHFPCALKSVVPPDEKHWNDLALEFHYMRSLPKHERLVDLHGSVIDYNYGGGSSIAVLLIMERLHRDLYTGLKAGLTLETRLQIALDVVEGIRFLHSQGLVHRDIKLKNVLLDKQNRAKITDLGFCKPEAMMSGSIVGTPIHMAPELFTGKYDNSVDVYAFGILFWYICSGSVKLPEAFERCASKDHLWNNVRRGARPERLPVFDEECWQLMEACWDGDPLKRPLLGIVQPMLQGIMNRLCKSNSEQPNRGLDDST
Particulars: at 10 µM.

For assay [4], the target named is Serine/threonine-protein kinase 38 (Homo sapiens) (UniProt Q15208). As to the kind of experiment: Selectivity interaction (ActivX KiNativ screen (kinase selectivity in THP-1 cell lysates)) EUB0000639a STK38. It counts as subcellular. The note with it: lysate, at 5 µM.
Chain of Serine/threonine-protein kinase 38 (Homo sapiens) (Q15208 2-465 limits assumed): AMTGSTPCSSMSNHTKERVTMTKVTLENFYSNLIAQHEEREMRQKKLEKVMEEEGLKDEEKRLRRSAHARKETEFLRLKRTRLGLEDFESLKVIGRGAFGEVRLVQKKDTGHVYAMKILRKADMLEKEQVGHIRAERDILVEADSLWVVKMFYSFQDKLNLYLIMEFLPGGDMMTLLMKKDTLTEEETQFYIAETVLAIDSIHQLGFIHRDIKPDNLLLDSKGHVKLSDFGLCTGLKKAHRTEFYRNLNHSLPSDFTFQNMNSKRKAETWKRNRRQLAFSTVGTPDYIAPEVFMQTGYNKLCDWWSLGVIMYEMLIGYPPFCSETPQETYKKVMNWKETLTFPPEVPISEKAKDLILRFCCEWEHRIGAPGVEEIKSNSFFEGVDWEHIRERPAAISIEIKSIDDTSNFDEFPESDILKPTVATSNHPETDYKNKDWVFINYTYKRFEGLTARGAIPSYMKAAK
Assay [5] has as its target T2, Serine/threonine-protein kinase tousled-like 1 (Homo sapiens) (UniProt Q9UKI8).
T2 sequence (whole entry): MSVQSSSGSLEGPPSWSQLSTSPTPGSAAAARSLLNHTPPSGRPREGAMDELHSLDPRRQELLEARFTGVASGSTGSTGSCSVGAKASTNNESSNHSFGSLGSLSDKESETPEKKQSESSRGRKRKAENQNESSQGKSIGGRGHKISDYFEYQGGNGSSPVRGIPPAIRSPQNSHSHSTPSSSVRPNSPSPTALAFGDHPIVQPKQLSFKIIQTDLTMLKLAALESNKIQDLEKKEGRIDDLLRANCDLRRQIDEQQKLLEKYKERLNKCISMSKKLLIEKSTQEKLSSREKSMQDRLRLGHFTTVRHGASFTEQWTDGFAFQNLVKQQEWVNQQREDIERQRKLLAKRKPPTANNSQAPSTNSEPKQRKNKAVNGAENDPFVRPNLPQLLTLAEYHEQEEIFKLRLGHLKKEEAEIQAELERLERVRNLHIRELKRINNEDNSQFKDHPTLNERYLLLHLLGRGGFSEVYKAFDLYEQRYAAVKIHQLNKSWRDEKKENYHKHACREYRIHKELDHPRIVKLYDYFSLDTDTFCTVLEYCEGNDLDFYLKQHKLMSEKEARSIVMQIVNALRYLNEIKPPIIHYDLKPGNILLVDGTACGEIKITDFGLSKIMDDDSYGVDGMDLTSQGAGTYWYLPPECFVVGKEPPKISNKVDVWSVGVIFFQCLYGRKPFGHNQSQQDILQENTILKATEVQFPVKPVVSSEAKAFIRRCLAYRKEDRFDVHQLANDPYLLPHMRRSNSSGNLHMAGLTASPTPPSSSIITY
As to the kind of experiment: Selectivity interaction (KinomeScan (DiscoverX)) EUB0000229b TLK1. The note with it: at 10 µM.

Assay [6] deals with Tyrosine-protein kinase Lck (Homo sapiens, UniProt P06239). The experiment in a line: Selectivity interaction (KinomeScan (DiscoverX)) EUB0001619a LCK. The note with it: at 1 µM.
Chain of Tyrosine-protein kinase Lck (P06239 2-509 limits assumed): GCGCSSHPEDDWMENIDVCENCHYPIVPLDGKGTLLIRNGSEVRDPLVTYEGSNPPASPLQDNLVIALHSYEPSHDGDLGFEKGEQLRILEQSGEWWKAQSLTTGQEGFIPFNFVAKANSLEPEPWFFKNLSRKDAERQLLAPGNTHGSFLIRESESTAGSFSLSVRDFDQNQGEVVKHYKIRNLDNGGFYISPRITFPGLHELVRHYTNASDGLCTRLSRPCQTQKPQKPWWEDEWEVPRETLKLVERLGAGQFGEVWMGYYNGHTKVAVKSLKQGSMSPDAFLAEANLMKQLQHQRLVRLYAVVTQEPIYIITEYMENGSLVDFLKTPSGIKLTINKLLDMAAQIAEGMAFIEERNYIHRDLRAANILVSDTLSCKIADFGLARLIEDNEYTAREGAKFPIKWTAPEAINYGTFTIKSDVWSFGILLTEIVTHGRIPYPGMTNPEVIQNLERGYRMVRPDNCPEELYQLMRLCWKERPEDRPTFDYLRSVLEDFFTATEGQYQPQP
Assay [7] deals with T3, Serine/threonine-protein kinase BRSK1 (Homo sapiens) (UniProt Q8TDC3).
T3 sequence (whole entry): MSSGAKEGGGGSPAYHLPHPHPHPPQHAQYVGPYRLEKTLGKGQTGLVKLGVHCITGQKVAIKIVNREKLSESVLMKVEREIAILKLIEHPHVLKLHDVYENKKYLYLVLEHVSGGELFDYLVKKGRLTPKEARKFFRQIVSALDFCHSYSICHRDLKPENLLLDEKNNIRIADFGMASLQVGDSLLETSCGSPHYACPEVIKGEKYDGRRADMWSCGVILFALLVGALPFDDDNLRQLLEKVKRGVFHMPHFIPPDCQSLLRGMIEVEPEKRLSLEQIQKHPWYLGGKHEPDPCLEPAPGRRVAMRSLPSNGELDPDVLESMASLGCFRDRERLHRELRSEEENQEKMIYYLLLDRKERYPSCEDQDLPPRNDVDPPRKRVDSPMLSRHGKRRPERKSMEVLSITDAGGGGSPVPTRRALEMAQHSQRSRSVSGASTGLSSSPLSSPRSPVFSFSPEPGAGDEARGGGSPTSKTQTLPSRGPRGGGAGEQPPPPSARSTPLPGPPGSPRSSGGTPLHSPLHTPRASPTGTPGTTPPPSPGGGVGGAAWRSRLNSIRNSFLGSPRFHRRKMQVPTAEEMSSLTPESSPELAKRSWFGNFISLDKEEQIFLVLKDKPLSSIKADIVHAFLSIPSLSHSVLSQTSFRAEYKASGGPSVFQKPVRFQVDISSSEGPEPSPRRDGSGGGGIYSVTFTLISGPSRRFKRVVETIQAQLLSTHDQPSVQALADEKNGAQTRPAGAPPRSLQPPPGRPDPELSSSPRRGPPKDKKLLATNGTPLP
As to the kind of experiment: Selectivity interaction (KinomeScan (DiscoverX)) EUB0001619a BRSK1. The note with it: at 1 µM.

Assay [8] deals with Serine/threonine-protein kinase 35 (Homo sapiens) (UniProt Q8TDR2). As to the kind of experiment: Selectivity interaction (KinomeScan (DiscoverX)) EUB0000618a STK35. The note with it: at 10 µM.
Chain of Serine/threonine-protein kinase 35 (Homo sapiens) (Q8TDR2 whole entry): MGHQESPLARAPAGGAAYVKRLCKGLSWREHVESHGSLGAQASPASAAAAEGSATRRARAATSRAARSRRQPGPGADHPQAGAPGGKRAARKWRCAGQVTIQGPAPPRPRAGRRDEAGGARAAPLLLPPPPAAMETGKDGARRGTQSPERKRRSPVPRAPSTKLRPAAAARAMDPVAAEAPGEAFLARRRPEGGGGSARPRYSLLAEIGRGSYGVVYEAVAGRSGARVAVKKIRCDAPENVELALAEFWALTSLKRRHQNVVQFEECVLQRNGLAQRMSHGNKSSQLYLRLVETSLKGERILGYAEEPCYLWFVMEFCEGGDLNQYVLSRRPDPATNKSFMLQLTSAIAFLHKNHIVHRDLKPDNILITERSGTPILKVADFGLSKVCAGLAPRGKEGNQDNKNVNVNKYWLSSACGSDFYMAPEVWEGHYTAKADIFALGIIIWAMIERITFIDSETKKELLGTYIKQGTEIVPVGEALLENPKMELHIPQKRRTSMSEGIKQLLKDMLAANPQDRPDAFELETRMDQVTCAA

Chain of Activin receptor type-1-like (Homo sapiens) (P37023 whole entry): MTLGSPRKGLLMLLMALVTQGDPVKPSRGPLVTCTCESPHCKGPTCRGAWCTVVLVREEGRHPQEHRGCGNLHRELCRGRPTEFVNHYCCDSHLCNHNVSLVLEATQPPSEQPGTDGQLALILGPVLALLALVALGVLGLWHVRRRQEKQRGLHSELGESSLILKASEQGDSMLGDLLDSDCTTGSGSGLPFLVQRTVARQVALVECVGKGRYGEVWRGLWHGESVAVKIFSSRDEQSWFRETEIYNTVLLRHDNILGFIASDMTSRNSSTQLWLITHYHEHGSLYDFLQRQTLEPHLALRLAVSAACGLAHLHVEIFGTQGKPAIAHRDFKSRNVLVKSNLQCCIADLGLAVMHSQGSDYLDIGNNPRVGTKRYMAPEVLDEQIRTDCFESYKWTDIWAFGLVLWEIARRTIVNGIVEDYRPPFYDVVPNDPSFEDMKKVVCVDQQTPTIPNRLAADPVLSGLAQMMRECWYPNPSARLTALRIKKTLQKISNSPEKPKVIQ
Chain of Epidermal growth factor receptor (P00533 whole entry): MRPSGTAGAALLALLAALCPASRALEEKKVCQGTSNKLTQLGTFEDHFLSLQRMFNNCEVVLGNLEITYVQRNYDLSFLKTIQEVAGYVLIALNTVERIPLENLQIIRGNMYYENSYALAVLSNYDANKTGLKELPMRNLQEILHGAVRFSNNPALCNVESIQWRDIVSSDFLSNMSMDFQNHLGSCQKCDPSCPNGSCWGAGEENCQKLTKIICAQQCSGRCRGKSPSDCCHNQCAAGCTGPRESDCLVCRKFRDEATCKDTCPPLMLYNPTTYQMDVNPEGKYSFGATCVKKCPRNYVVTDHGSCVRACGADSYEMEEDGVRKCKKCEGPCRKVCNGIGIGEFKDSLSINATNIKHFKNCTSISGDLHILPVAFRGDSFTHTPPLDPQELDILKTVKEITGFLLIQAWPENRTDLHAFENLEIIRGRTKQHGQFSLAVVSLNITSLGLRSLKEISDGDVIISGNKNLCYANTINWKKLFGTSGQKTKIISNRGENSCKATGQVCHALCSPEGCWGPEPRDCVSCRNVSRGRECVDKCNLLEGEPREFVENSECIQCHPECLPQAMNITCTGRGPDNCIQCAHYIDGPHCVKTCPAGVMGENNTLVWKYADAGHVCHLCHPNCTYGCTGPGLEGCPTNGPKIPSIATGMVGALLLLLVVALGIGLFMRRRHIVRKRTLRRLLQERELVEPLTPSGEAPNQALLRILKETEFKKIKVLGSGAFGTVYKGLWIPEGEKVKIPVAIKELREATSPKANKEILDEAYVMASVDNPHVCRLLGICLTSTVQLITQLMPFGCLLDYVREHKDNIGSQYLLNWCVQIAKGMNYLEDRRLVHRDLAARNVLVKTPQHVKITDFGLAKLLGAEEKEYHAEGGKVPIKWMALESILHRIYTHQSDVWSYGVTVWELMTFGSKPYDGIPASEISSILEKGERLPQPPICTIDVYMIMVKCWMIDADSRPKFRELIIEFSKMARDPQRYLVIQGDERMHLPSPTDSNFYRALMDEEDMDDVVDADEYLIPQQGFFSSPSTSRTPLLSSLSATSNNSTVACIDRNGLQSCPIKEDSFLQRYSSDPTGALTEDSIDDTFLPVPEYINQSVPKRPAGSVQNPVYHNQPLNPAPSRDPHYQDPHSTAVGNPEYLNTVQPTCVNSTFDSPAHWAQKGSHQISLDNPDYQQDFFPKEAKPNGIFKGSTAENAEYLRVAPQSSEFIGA

In the case of `Cc1ccc(-c2ccc3c(ccc4sc5c(c43)NC[C@@H](C)NC5=O)n2)cn1`, the % of inhibition in assay [1] is -2%. With `C=CC(=O)Nc1cccc(C(=O)Nc2ccc(Nc3cc(-c4[nH]c(SC)nc4C)ccn3)cc2)c1`, the % of control in assay [2] (at 1 µM) is 74%; in assay [2] (at 5 µM), 52%. On to `Cc1cc([C@@H](C)Nc2ccccc2C(=O)O)c2nc(N3CCOCC3)cc(=O)n2c1` [AZD-6482], for which the % of control in assay [3] turned out to be 100%.

For `CC[C@@H]1[C@H](F)C(=O)N[C@@H]1COc1nccc2cc(C(N)=O)c(OC)cc12` [ZIMLOVISERTIB], the % of inhibition in assay [4] is 87.9%. `COc1cc(N(C)c2ccnc3ccc(C(F)(F)F)cc23)cc(OC)c1OC`: the % binding in assay [5] came out at 97%. With `N#Cc1cccc(-c2c[nH]c3ncnc(N4CCOCC4)c23)c1`, the % of control in assay [6] worked out at 95%; in assay [7] it was 100%. In turn, `O[C@H]1CC[C@H](Nc2ncc3nc(Nc4c(F)cc(F)cc4F)n([C@H]4CCOC4)c3n2)CC1` showed a % of control in assay [8] of 100%.

The record behind these values is ChEMBL document CHEMBL5465560, “Selectivity Literature for EUbOPEN Chemogenomic Library” (2024).
